The results in this text go back to patent US10844049B2, “GLP-1R agonists and uses thereof” (QILU REGOR THERAPEUTICS INC., priority 2018, dated 2020).

This test concerns the target GLP1R (Homo sapiens, UniProt P43220). Description: GLP1R cAMP HTRF assay, HEK293/GLP-1R/CRE/Luc (HEK293T cells). Type of test: cell-based. The settings on record: read-out: EC50. The method, boiled down: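 cAMP accumulation via HTRF after 30 min, 37 °C exposure of 1000 receptor-expressing cells/well to compound (0.5% DMSO final) in IBMX (500 μM)/0.1% BSA DPBS.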

Sequence of GLP1R (P43220 24-463): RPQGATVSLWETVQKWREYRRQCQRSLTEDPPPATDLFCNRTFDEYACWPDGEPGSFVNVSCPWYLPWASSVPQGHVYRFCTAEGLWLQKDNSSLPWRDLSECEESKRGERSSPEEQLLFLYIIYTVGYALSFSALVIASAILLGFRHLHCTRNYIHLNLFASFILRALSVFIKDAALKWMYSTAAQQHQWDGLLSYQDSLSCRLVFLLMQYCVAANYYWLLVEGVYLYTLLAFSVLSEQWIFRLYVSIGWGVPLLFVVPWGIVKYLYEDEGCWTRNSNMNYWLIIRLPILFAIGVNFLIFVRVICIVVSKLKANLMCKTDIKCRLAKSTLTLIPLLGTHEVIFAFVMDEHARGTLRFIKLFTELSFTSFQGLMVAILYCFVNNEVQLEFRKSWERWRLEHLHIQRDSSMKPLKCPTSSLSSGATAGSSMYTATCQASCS

`O=C(O)c1ccc2nc(CN3CC=C(c4cccc(OCc5ccccc5C(F)(F)F)n4)CC3)n(C[C@@H]3CCO3)c2c1` [Compound 135, (S)-1-(oxetan-2-ylmethyl)-2-((6-((2-(trifluoromethyl)benzyl)oxy)-3′,6′-dihydro-[2,4′-bipyridin]-1′(2′H)-yl)methyl)-1H-benzo[d]imidazole-6-carboxylic acid]: the EC50 was no more than 0.15 µM.
The same measure for `O=C(NS(=O)(=O)C(F)(F)F)c1ccc2nc(CN3CC=C(c4cccc(OCc5ccc(Cl)cc5F)n4)CC3)n(C[C@@H]3CCO3)c2c1` [Compound 173, (S)-2-((6-((4-chloro-2-fluorobenzyl)oxy)-3′,6′-dihydro-[2,4′-bipyridin]-1′(2′H)-yl)methyl)-1-(oxetan-2-ylmethyl)-N-((trifluoromethyl)sulfonyl)-1H-benzo[d]imidazole-6-carboxamide]: no more than 1 µM; for `N#Cc1ccc(COc2cccc(N3CC=C(Cc4nc5ccc(C(=O)O)cc5n4C[C@@H]4CCO4)CC3)n2)c(F)c1` [Compound 240, (S)-2-((6′-((4-cyano-2-fluorobenzyl)oxy)-3,6-dihydro-2H-[1,2′-bipyridin]-4-yl)methyl)-1-(oxetan-2-ylmethyl)-1H-benzo[d]imidazole-6-carboxylic add]: no more than 0.15 µM.
As for `O=C(O)c1ccc2nc(CN3CCN(c4ncnc(OCc5ccc(Cl)cc5F)n4)CC3)n(C[C@@H]3CCO3)c2c1` [Compound 167, (S)-2-((4-(4-((4-chloro-2-fluorobenzyl)oxy)-1,3,5-triazin-2-yl)piperazin-1-yl)methyl)-1-(oxetan-2-ylmethyl)-1H-benzo[d]imidazole-6-carboxylic acid], the figure is no more than 0.15 µM.
Consider `O=C(O)c1ccc2nc(CN3CC=C(c4cccc(OCc5ccccc5)n4)CC3)n(C[C@@H]3CCO3)c2c1` [Compound 73, (S)-2-((6-(benzyloxy)-5′,6′-dihydro-[2,4′-bipyridin]-1′(2′H)-yl)methyl)-1-(oxetan-2-ylmethyl)-1H-benzo[d]imidazole-6-carboxylic add], for which the concentration for a half-maximal effect (EC50) is no more than 0.15 µM.
Turning to `O=C(O)c1ccc2nc(CN3CCN(c4cc(OCc5ccc(Cl)cc5F)ccc4F)CC3)n(C[C@@H]3CCO3)c2c1` [Compound 186, (S)-2-((4-(5-(4-chloro-2-fluorobenzyloxy)-2-fluorophenyl)piperazin-1-yl)methyl)-1-(oxetan-2-ylmethyl)-1H-benzo[d]imidazole-6-carboxylic acid], the EC50 is no more than 0.15 µM.
On to `O=C(O)c1ccc2nc(CN3CC=C(c4cccc(OCc5ccc(-n6nccn6)cc5)n4)CC3)n(C[C@@H]3CCO3)c2c1` [Compound 243, (S)-2-((6-((4-(2H-1,2,3-triazol-2-yl)benzyl)oxy)-3′,6′-dihydro-[2,4′-bipyridin]-1′(2′H)-yl)methyl)-1-(oxetan-2-ylmethyl)-1H-benzo[d]imidazole-6-carboxylic add], for which the half-maximal effective concentration (EC50) is no more than 0.15 µM.
For `O=C(O)c1ccc2nc(CN3CC=C(c4ccc5ccn(Cc6ccc(Cl)cc6F)c5n4)CC3)n(C[C@@H]3CCO3)c2c1` [Compound 25, (S)-2-((4-(1-(4-chloro-2-fluorobenzyl)-1 h-pyrrolo[2,3-b]pyridin-6-yl)-5,6-dihydropyridin-1(2H)-yl)methyl)-1-(oxetan-2-ylmethyl)-1 h-benzo[d]imidazole-6-carboxylic acid], the EC50 is no more than 0.15 µM.
The same measure for `O=C(O)c1ccc2nc(CN3CC=C(c4cccc(OCc5ccc(Cl)cc5F)n4)CC3)n(C[C@@H]3CCO3)c2n1` [Compound 169, (S)-2-((6-((4-chloro-2-fluorobenzyl)oxy)-3′,6′-dihydro-[2,4′-bipyridin]-1′(2′H)-yl)methyl)-3-(oxetan-2-ylmethyl)-3H-imidazo[4,5-b]pyridine-5-carboxylic acid]: no more than 0.015 µM; for `N#Cc1ccc(COc2cc(C3=CCN(Cc4nc5ccc(C(=O)O)cc5n4C[C@@H]4CCO4)CC3)cc(F)c2F)c(F)c1` [Compound 205, (S)-2-((4-(3-(4-cyano-2-fluorobenzyloxy)-4,5-difluorophenyl)-5,6-dihydropyridin-1(2H)-yl)methyl)-1-(oxetan-2-ylmethyl)-1H-benzo[d]imidazole-6-carboxylic acid]: no more than 0.15 µM; for `O=C(O)c1ccc2nc(CN3CCC(c4cccc(OCc5ccc(C#CC6CC6)cc5F)c4)CC3)n(C[C@@H]3CCO3)c2c1` [Compound 192, (S)-2-((4-(3-((4-(cyclopropylethynyl)-2-fluorobenzyl)oxy)phenyl)piperidin-1-yl)methyl)-1-(oxetan-2-ylmethyl)-1H-benzo[d]imidazole-6-carboxylic acid]: no more than 0.15 µM.
The same measure for `O=C(O)c1ccc2nc(CN3CCN(c4cc(OCc5ccc(C#CC6CC6)cc5F)ccc4F)CC3)n(C[C@@H]3CCO3)c2c1` [Compound 198, (S)-2-((4-(5-((4-(cyclopropylethynyl)-2-fluorobenzyl)oxy)-2-fluorophenyl)piperazin-1-yl)methyl)-1-(oxetan-2-ylmethyl)-1H-benzo[d]imidazole-6-carboxylic acid]: no more than 1 µM; for `O=C(O)c1ccc2nc(CN3CC=C(c4cc(-c5ccccc5)cc(OCc5ccc(Cl)cc5F)n4)CC3)n(C[C@@H]3CCO3)c2c1` [Compound 109]: no more than 1 µM.
The same measure for `O=C(O)c1ccc2nc(CN3CCN(c4cc5ccccc5c(OCc5ccc(Cl)cc5F)n4)CC3)n(C[C@@H]3CCO3)c2c1` [Compound 36, (S)-2-((4-(1-((4-chloro-2-fluorobenzyl)oxy)isoquinolin-3-yl)piperazin-1-yl)methyl)-1-(oxetan-2-ylmethyl)-1 h-benzo[d]imidazole-6-carboxylic acid]: no more than 1 µM; for `O=C(O)c1ccc2nc(CC3CCN(c4cccc(OCc5ccc(Cl)cn5)n4)CC3)n(C[C@@H]3CCO3)c2n1` [Compound 230, (S)-2-((l-(6-((5-chloropyridin-2-yl)methoxy)pyridin-2-yl)piperidin-4-yl)methyl)-3-(oxetan-2-ylmethyl)-3H-imidazo[4,5-b]pyridine-5-carboxylic acid]: no more than 0.15 µM.
On to `O=C(O)c1ccc2nc(CN3CC=C(c4cc(NCc5ccc(Cl)cc5F)ccc4F)CC3)n(C[C@@H]3CCO3)c2c1` [Compound 127, (S)-2-((4-(5-((4-chloro-2-fluorobenzyl)amino)-2-fluorophenyl)-3,6-dihydropyridin-1(2H)-yl)methyl)-1-(oxetan-2-ylmethyl)-1H-benzo[d]imidazole-6-carboxylic acid], for which the half-maximal effective concentration (EC50) is no more than 0.15 µM.
The same measure for `O=C(O)c1ccc2nc(CN3CCN(c4cccc(OCc5ccc(C(F)(F)F)cc5)c4)CC3)n(C[C@@H]3CCO3)c2c1` [Compound 189]: no more than 0.15 µM; for `COc1ccc(COc2cccc(C3=CCN(Cc4nc5ccc(C(=O)O)cc5n4C[C@@H]4CCO4)CC3)n2)cc1` [Compound 118, (S)-2-((6-((4-methoxybenzyl)oxy)-3′,6′-dihydro-[2,4′-bipyridin]-1′(2H)-yl)methyl)-1-(oxetan-2-ylmethyl)-1H-benzo[d]imidazole-6-carboxylic acid]: no more than 0.015 µM.
With `O=C(O)c1ccc2nc(CN3CC=C(c4cc(OCc5ccc(Cl)cc5F)c(F)cc4F)CC3)n(C[C@@H]3CCO3)c2c1` [Compound 132, (S)-2-((4-(5-((4-chloro-2-fluorobenzyl)oxy)-2H-difluorophenyl)-3,6-dihydropyridin-1(2H)-yl)methyl)-1-(oxetan-2-ylmethyl)-1H-benzo[d]imidazole-6-carboxylic acid], the EC50 was no more than 1 µM.

Broadly, the EC50 is the concentration needed to bring the measured effect to its halfway point.
